Laboratory results as given in US20090068207A1, “Compositions Containing Beta 2-Glycoprotein I-Derived Peptides for the Prevention and/or Treatment of Vascular Disease” (Vascular Biogenics Ltd., priority 2005, published 2009).
“And” between values parts separate entries of the source, which are not always exact repeats. Identical values can stand only once.

Key:
[1] = system: lymph node cells; test: Lymph node cell proliferation (stimulation index) to oxLDL after oral administration; format: in vivo, mice; details: oral, LDL-RD mice immunized with OxLDL; for effect on Stimulation Index of sensitized lymph node cells in response to OxLDL / Stimulation index / reduction in Stimulation Index of OxLDL-sensitized lymph node cells: 3 doses of 100 μg; for Stimulation index: OxLDL challenge, mean ± S.E.
Experimental: Proliferation was measured by the incorporation of [^3H] thymidine into DNA during the final 12 h of incubation. The results were computed as stimulation index: the ratio of the mean cpm of the antigen to the mean background cpm obtained in the absence of the antigen.
[…] Three days after the final administration of peptides, the mice were immunized with OxLDL in incomplete Freund's adjuvant, as described in the Examples above, and lymph node cells assessed for antigen (OxLDL) stimulation of proliferation 10 days later. Proliferation was assessed by incorporation of thymidine, expressed as the Stimulation Index, as described.

[2] = system: LDL-RD mice; test: Aortic sinus lesion area after intraperitoneal immunization with incomplete Freund's adjuvant; format: in vivo; details: for Aortic sinus lesion (μm^2): End, intraperitoneal with incomplete Freund's adjuvant, head 100 μg, mean ± S.E
Experimental: Intraperitoneal immunization with human β2GPI-derived peptides: human β2GPI-derived peptides were dissolved in PBS and mixed with equal volumes of Freund's incomplete adjuvant. […] One week following the last immunization, the diet was switched from chow to atherogenic “Western” diet for five weeks, and then the mice were sacrificed.
(§1) Assessment of Atherosclerosis: Quantification of atherosclerotic fatty streak lesions was done by calculating the lesion size in the aortic sinus as previously described (16) and by calculating the lesion size in the aorta. Briefly, after perfusion with saline Tris EDTA, the heart and the aorta were removed from the animals and the peripheral fat cleaned carefully. The upper section of the heart was embedded in OCT medium (10.24% w/w polyvinyl alcohol; 4.26% w/w polyethylene glycol; 85.50% w/w nonreactive ingredients) and frozen. Every other section (10 μm thick) throughout the aortic sinus (400 μm) was taken for analysis. The distal portion of the aortic sinus was recognized by the three valve cusps that are the junctions of the aorta to the heart. […] Lesion areas per section were scored on a grid (17) by an observer counting unidentified, numbered specimens. The aorta was dissected from the heart and surrounding adventitious tissue was removed. Fixation of the aorta and Sudan staining of the vessels were performed as previously described (21).
Immunization with Human β2GPI-derived peptides mildly attenuates the early atherogenesis in LDL RD mice: In order to compare the effects of different modes of administration of human β2GPI-derived peptides on atherosclerosis, human β2GPI-derived peptides and human β2GPI were administered intraperitoneally (IP) with incomplete Freund's adjuvant, in LDL RD mice, effectively immunizing the mice, as opposed to the tolerance effected by mucosal administration.
Data presented in FIG. 11, and Table 7, clearly indicates a non-specific inhibitory effect of immunization (see PBS vs Non-immunized) on the size of the aortic sinus lesions in the susceptible LDL RD mice. On an average, immunization with the human β2GPI-derived peptides was equally, if not more, effective in inhibiting atherogenesis as immunization with human β2GPI, or with PBS prepared in incomplete Freund's adjuvant. In contrast to the protection achieved with mucosal administration, the different peptides S-1, S-2, S-3 and S-4 provided widely divergent, and diminished (34% or less) degrees of protection, as compared with controls.

[3] = system: LDL-RD mice; test: Aortic sinus lesion area after oral administration, Western diet; format: in vivo; details: for Aortic sinus lesion (μm^2): End, oral 100 μg, mean ± S.E
Experimental: Oral Tolerance: For comparison, oral tolerance to plaque-associated molecules was induced by feeding […] of antigen every other day (for a detailed account of induction of oral tolerance, see U.S. patent application Ser. No. 09/806,400 to Shoenfeld et al filed Sep. 30, 1999), in a similar regimen to the nasal tolerance. LDL-RD mice were fed by a nasogastric tube, five doses (every other day) of human or bovine β2GPI in PBS in two different concentrations (500 and 50 μg/dose).
Oral tolerance to β2GPI-derived peptides, alone or in combination was induced by feeding 100 μg of the peptides (prepared in PBS, 0.2 ml), as detailed hereinabove, every other day for a total of 5 doses of 100 μg. One day following the last feeding, all mice were switched from chow-diet to an atherogenic “Western” diet and sacrificed five weeks later.
as §1
LDL-receptor deficient (LDL-RD; LDLR −/−) mice created on a C57BL/6 background develop accelerated atherosclerosis when fed a high cholesterol diet, but not when fed a regular chow diet. In order to determine whether mucosal administration of the plaque antigen β2GPI could suppress atherogenic processes, LDL-RD mice were fed low, oral tolerance inducing doses of human and bovine β2GPI, and the assessed for alterations in response to diet.

[4] = system: LDL-RD mice; test: Aortic sinus lesion area after nasal tolerance induction, Western diet; format: in vivo
Experimental: Nasal Tolerance: Nasal tolerance was induced by intranasal administration of oxidized LDL, β2GPI, β2GPI-derived peptides or HSP65, in a total volume of 10 μl PBS. Intranasal administration was performed on mildly sedated mice (12-16 weeks old), each mouse receiving 3 doses of antigen per dose, in the indicated concentrations, every other day. Atherogenesis was induced by 5 weeks of a Western diet initiated on the day following the last intranasal administration, or assessed (in Apo E KO mice) after 8 weeks on a chow diet. Controls received equal amounts of BSA and/or PBS, as indicated, in an identical regimen. Plasma was obtained for assessment of cholesterol and triglyceride levels from all mice, and the mice were sacrificed for evaluation of atherosclerosis, as described hereinbelow, after 5 weeks Western diet, or (in Apo E KO mice) after 8 weeks on a chow diet.
Assessment of Atherosclerosis: Quantification of atherosclerotic fatty streak lesions was done by calculating the lesion size in the aortic sinus as previously described (16) and by calculating the lesion size in the aorta. Briefly, after perfusion with saline Tris EDTA, the heart and the aorta were removed from the animals and the peripheral fat cleaned carefully. The upper section of the heart was embedded in OCT medium (10.24% w/w polyvinyl alcohol; 4.26% w/w polyethylene glycol; 85.50% w/w nonreactive ingredients) and frozen. Every other section (10 μm thick) throughout the aortic sinus (400 μm) was taken for analysis. The distal portion of the aortic sinus was recognized by the three valve cusps that are the junctions of the aorta to the heart. Sections were evaluated for fatty streak lesions after processing and staining with oil-red O, according to Paigen et al (Atherosclerosis, 1987; 68:231-40). Lesion areas per section were scored on a grid (17) by an observer counting unidentified, numbered specimens. The aorta was dissected from the heart and surrounding adventitious tissue was removed. Fixation of the aorta and Sudan staining of the vessels were performed as previously described (21).
Mice were bled prior to feeding (Time 0) and at the conclusion of the experiment (End) for determination of lipid profile. Atherosclerosis was assessed in heart and aorta as described above, 8 weeks after the last feeding. Mice were weighed every 2 weeks during the experiment. All mice were fed water ad libitum and a normal chow-diet containing 4.5% fat by weight (0.02% cholesterol), up to the final antigen exposure, and then a “Western” diet until sacrifice.
Thus, nasal exposure to a low dose and an exceedingly low dose of recombinant human HSP 65 were compared for their effectiveness in suppressing atherogenesis in LDL-RD mice. 58 male 12-16 week old LDL-RD mice were divided into 4 groups.

[5] = system: ApoE-KO mice; test: Aortic sinus lesion area after nasal administration in ApoE-KO mice; format: in vivo; details: End, nasal 10 μg/mouse, mean ± S.E
Experimental: Nasal Tolerance: Nasal tolerance was induced by intranasal administration of oxidized LDL, β2GPI, β2GPI-derived peptides or HSP65, in a total volume of 10 μl PBS. Intranasal administration was performed on mildly sedated mice (12-16 weeks old), each mouse receiving […] of antigen per dose, in the indicated concentrations, every other day. Atherogenesis was induced by 5 weeks of a Western diet initiated on the day following the last intranasal administration, or assessed (in Apo E KO mice) after 8 weeks on a chow diet. Controls received equal amounts of BSA and/or PBS, as indicated, in an identical regimen. Plasma was obtained for assessment of cholesterol and triglyceride levels from all mice, and the mice were sacrificed for evaluation of atherosclerosis, as described hereinbelow, after 5 weeks Western diet, or (in Apo E KO mice) after 8 weeks on a chow diet.
Assessment of Atherosclerosis: Quantification of atherosclerotic fatty streak lesions was done by calculating the lesion size in the aortic sinus as previously described (16) and by calculating the lesion size in the aorta. Briefly, after perfusion with saline Tris EDTA, the heart and the aorta were removed from the animals and the peripheral fat cleaned carefully. […] Lesion areas per section were scored on a grid (17) by an observer counting unidentified, numbered specimens. […]

[6] = system: ApoE-KO mice; test: Aortic sinus lesion area after oral administration in ApoE-KO mice; format: in vivo; details: oral 50 μg, 5 doses
Text: as §1, with “Fixation of the aorta and Sudan staining of the vessels were performed as previously described (21).” left out
In order to determine the protective effect of mucosal administration of β2GPI on development of atherosclerosis, adult ApoE-KO mice were treated with oral administration of human β2GPI. […] Lesion area calculated from cryosections of the aortic sinus were compared between control untreated 20 week old mice, and mice following 16 weeks oral administration of β2GPI or PBS. […]

Row | Substance | effect on Stimulation Index of sensitized lymph node cells in response to OxLDL [1] | Stimulation index [1] | Aortic sinus lesion (μm^2) [2] | Aortic sinus lesion (μm^2) [3] | reduction in Stimulation Index of OxLDL-sensitized lymph node cells [1] | further results
1 | ECLPQHAMFGNDTITCTTHGN [Peptide S-2] | mildly reduced | 168 ± 72 | 24050 ± 7755 μm^2 | 23636 ± 3857 μm^2 | – | –
2 | GDKVSFFCKNKE [Peptide S-4-4] | – | – | – | – | – | decrease of Stimulation Index as compared with PBS-treated controls ([1]; 5 doses of 100 μg, OxLDL stimulation): ~50% and ~60%
3 | HSP-65: recombinant mycobacterial heat shock protein HSP 65 | – | – | – | – | – | Aortic sinus lesion (μm^2) ([4]; END, intranasal 10 μg/mouse every other day for 5 days, then Western diet, mean ± S.E): 44375 ± 5437 μm^2; protection from atherogenesis ([4]; nasal, exceedingly low doses (1 μg/mouse)): approximately 70%
4 | MLHGDKVSFFCKNKEKKCSYT [Peptide S-4] | – | 17 ± 10 | 23758 ± 5767 μm^2 | 21125 ± 2482 μm^2 | 94% | Aortic sinus lesion (μm^2) [5]: 107953 ± 10158 μm^2; reduction of atherosclerosis (aortic sinus lesion size) as compared with BSA- and PBS-fed controls ([3]; oral 100 μg/dose, 5 doses, Western diet 5 weeks): 61%; Aortic sinus lesion (μm^2) ([6]; End, ApoE-KO mice): 81923 ± 9191 μm^2; reduction of progression of atherosclerotic lesions compared to PBS controls ([6]; then 8 weeks of chow diet, 10-11 week-old ApoE-KO mice): > 50%
5 | SCKVPVKKATVVYQGERVKIQ [Peptide S-3] | – | 20 ± 6 | 45329 ± 14667 μm^2 | 29269 ± 3307 μm^2 | 93% | anti-atherogenic effect as compared to PBS+IFA ([2]; intraperitoneal immunization): without any significant anti-atherogenic effect
6 | VCPFAGILENGAVRYTTFEY [Peptide S-1] | mildly reduced | 246 ± 79 | 29968 ± 6032 μm^2 | 26750 ± 4698 μm^2 | – | –
